Results: ChEMBL document CHEMBL3627684, “Discovery of spirocyclic-diamine inhibitors of mammalian acetyl CoA-carboxylase” (Bioorg Med Chem Lett, 2015)

Columns and labels:
[1] = Intrinsic clearance in human liver microsomes
[2] = biological target: Acetyl-CoA carboxylase 2 (Homo sapiens, UniProt O00763); assay: Inhibition of recombinant human ACC2 expressed in CHO cells by fluorescence polarization assay
[3] = biological target: Acetyl-CoA carboxylase 1 (Rattus norvegicus, UniProt P11497); assay: Inhibition of rat liver ACC1 preincubated for 10 mins followed by acetyl-CoA/KHCO3/[14C]-NaHCO3/ATP addition measured after 20 mins by liquid scintillation counting analysis
[4] = Inhibition of acetyl-CoA carboxylase in rat cryopreserved hepatocytes assessed as suppression of de novo lipogenesis; format: cell-based; settings: hepatocyte
[5] = Plasma clearance in rat; format: ADME, organism-based

Sequence of Acetyl-CoA carboxylase 2 (O00763 whole entry): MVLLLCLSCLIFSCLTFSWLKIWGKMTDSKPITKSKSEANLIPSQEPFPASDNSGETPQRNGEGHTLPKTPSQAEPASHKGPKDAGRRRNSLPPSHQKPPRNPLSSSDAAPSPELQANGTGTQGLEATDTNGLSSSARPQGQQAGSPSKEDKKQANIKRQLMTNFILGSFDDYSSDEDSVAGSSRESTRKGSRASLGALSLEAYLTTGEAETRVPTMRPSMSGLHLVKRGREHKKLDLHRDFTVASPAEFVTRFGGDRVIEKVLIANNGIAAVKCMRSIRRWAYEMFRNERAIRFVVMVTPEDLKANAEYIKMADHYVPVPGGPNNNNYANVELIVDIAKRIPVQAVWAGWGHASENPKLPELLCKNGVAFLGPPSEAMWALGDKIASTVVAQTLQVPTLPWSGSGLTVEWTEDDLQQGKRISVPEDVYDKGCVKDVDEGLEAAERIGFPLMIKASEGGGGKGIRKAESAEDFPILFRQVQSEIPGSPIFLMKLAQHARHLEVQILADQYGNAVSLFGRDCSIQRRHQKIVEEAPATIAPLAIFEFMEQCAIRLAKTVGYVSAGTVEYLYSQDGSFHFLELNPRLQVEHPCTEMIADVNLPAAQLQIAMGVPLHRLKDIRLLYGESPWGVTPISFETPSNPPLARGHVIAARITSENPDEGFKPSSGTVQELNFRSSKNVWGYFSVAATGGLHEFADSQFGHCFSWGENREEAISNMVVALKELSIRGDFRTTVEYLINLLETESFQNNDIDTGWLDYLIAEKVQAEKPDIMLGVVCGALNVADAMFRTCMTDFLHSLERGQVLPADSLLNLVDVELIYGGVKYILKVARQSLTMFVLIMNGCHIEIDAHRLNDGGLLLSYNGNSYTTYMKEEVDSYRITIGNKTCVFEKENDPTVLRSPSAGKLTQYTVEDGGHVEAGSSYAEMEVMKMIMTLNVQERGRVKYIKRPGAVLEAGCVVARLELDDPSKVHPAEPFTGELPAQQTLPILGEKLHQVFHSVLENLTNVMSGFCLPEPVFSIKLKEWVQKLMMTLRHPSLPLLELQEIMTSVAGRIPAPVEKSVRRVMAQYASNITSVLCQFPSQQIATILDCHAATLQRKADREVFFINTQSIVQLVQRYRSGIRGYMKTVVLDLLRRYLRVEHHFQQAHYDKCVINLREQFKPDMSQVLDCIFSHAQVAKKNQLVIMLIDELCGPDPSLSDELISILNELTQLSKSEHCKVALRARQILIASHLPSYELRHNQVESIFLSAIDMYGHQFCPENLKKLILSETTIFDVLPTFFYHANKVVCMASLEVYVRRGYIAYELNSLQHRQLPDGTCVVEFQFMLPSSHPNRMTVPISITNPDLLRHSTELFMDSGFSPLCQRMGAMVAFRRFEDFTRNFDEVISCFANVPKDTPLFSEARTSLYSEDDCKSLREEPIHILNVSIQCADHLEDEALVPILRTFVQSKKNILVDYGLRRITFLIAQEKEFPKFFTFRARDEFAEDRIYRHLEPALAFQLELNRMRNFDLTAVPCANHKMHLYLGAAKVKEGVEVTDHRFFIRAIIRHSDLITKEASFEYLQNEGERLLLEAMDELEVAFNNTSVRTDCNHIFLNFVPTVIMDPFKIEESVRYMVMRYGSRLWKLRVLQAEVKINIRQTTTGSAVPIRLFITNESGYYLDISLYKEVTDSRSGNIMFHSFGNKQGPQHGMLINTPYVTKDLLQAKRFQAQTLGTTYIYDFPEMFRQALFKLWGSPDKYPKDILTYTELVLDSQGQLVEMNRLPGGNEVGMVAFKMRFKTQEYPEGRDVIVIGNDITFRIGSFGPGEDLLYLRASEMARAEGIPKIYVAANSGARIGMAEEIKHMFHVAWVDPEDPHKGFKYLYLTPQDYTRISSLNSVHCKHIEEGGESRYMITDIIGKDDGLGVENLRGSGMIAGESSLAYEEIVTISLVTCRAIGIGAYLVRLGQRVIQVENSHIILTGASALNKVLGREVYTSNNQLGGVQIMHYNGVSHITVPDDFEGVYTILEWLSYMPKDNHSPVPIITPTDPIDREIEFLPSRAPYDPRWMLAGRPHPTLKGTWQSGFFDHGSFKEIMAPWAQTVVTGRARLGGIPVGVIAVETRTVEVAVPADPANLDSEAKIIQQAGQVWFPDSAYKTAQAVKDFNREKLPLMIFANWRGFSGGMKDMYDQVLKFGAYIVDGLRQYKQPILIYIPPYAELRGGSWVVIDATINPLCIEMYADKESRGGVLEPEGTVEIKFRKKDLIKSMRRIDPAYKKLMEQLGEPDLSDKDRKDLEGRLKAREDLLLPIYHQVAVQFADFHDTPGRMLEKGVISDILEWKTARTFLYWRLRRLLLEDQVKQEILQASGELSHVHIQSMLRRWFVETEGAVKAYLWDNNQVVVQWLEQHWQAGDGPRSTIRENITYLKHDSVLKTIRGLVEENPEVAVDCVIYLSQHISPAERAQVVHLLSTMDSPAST

Row | Structure (SMILES) | CLint scaled [1] | IC50 [2] | IC50 [3] | IC50 [4] | clearance [5]
1 | Cc1cc(C(=O)N2CCC3(CC2)CN(C(=O)OCC(C)(C)C)C3)cc2cn[nH]c12 |  | 1400 nM | 310 nM |  | 
2 | Cc1cc(C(=O)N2CCC3(CC2C)CN(C(=O)OC(C)(C)C)C3)cc2cn[nH]c12 (stereo not drawn) | 46 mL/min/kg | 9200 nM | 4800 nM |  | 
3 | Cc1cc(C(=O)N2CCC3(CC2C)C[C@@H](C)N(C(=O)OCC(C)(C)C)C3)cc2cn[nH]c12 (stereo partly drawn) |  | 1100 nM | 140 nM |  | 
4 | Cc1cc(C(=O)N2CCC3(CCN(C(=O)O[C@H](C)c4ccccc4)C3)CC2)cc2cn[nH]c12 | 117 mL/min/kg | 260 nM | 65 nM |  | 
5 | Cc1cc(C(=O)N2CC3(CN(C(=O)OC(C)(C)C)C3)C2)cc2cn[nH]c12 |  | > 10000 nM | > 30000 nM |  | 
6 | Cc1cc(C(=O)N2CCC3(CC2)CN(C(=O)OC(C)(C)C)C3C)cc2cn[nH]c12 (stereo not drawn) | 60 mL/min/kg | 900 nM | 240 nM |  | 
7 | Cc1cc(C(=O)N2CCC3(CC2)CN(C(=O)O[C@H](C)c2ccccc2)C3)cc2cn[nH]c12 | 64 mL/min/kg | 880 nM | 310 nM |  | 
8 | Cc1cc(C(=O)N2CCC3(CC2)CCN(C(=O)OCC(C)(C)C)[C@@H]3C)cc2cn[nH]c12 |  | 200 nM | 26 nM |  | 
9 | Cc1cc(C(=O)N2CC3(CCN(C(=O)OC(C)(C)C)CC3)C2)cc2cn[nH]c12 | 19 mL/min/kg | 2400 nM | 810 nM |  | 
10 | CC(C)(C)n1cc2c(n1)C(=O)CC1(CCN(C(=O)c3ccc4[nH]ncc4c3)CC1)O2 |  |  |  | 93 nM | 
11 | Cc1cc(C(=O)N2CCC3(CCN(C(=O)OCc4ccccc4)C3)CC2)cc2cn[nH]c12 |  | 4000 nM | 2100 nM |  | 
12 | Cc1cc(C(=O)N2CCC3(CCN(C(=O)OC(C)C)C3)CC2)cc2cn[nH]c12 |  | 4500 nM | 1600 nM |  | 
13 | Cc1cc(C(=O)N2CCC3(CCN(C(=O)OC(C)(C)C)C3)C2)cc2cn[nH]c12 (stereo not drawn) |  | 20000 nM | 11000 nM |  | 
14 | Cc1cc(C(=O)N2CCC3(CCN(C(=O)OC(C)(C)C)C3)CC2)cc2cn[nH]c12 | 32 mL/min/kg | 1000 nM | 510 nM |  | 

The next lines start with the values.

Row | CLint scaled [1] | IC50 [2] | IC50 [3] | IC50 [4] | clearance [5] | Structure (SMILES)
15 | 117 mL/min/kg | 800 nM | 220 nM |  |  | Cc1cc(C(=O)N2CCC3(CCN(C(=O)OCC(C)(C)C)C3)CC2)cc2cn[nH]c12
16 |  | 5500 nM | 2200 nM |  |  | Cc1cc(C(=O)N2CCC3(CC2C)C[C@H](C)N(C(=O)OCC(C)(C)C)C3)cc2cn[nH]c12 (stereo partly drawn)
17 |  | > 17000 nM | 9300 nM |  |  | Cc1cc(C(=O)N2CCC3(CCN(C(=O)OC(C)(C)C)C3)CC2C)cc2cn[nH]c12 (stereo in doubt; 3.3.2)
18 | < 9 mL/min/kg | 800 nM | 450 nM |  |  | Cc1cc(C(=O)N2CCC3(CC2)CN(C(=O)OC(C)(C)C)C3)cc2cn[nH]c12
19 | 106 mL/min/kg | 110 nM | 16 nM | 300 nM | 52 mL/min/kg | Cc1cc(C(=O)N2CCC3(CC2)CCN(C(=O)OCC(C)(C)C)[C@H]3C)cc2cn[nH]c12
20 |  | > 14000 nM | 7900 nM |  |  | Cc1cc(C(=O)N2CCC3(CCN(C(=O)OC(C)(C)C)C3)CC2C)cc2cn[nH]c12 (stereo in doubt; 3.3.1)
21 | 94 mL/min/kg | 2200 nM | 1000 nM |  |  | Cc1cc(C(=O)N2CCC3(CCN(C(=O)OC(C)(C)C)CC3)C2)cc2cn[nH]c12
